According to patent publication US12559490B2, “Compositions and methods for modulating hair growth” (The Regents of the University of California, priority 2020, dated 2026):

Experiments:
[1] = target: T1, Mitochondrial Pyruvate Carrier (MPC) (Homo sapiens, UniProt O95563+Q9Y5U8); assay: Pyruvate-driven respiration (OCR, XF96) in permeabilized HepG2 cells to test MPC; assay type: cell-based; settings: pyruvate/malate substrate, nine-point dose-response, 1 or 3 replicates
T1 sequence (Q9Y5U8 1-109): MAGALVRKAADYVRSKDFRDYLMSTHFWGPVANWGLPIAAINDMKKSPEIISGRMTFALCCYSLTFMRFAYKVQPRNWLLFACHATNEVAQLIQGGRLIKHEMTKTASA
T1 sequence (O95563 1-127): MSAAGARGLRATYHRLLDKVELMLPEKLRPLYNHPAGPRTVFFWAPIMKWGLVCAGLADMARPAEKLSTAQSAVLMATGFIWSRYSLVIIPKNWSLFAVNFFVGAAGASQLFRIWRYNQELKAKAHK

[2] = Solubility testing in a polyethylene glycol/transcutol/ethanol/DMSO formulation; assay type: physicochemical; settings: for Conc.: concentration tested in formulation of about 25-75% polyethylene glycol, 5-20% transcutol, 5-50% ethanol, 5-10% DMSO, room temperature, Notes column says whether it dissolved; for Notes (dissolved / failed to dissolve): stirred 1 hour, overnight or 24 hours at room temperature
From the text: Results are detailed in the table below.

IC50 [1] [nM] | Conc. [2] [% w/w] | Structure (SMILES) | Notes (dissolved / failed to dissolve) [2]
262 |  | N#C/C(=C\c1cn(Cc2cccnc2)c2ncccc12)C(=O)O [PP39, Sodium (E)-2-cyano-3-(1-(pyridin-3-ylmethyl)-1H-pyrrolo[2,3-b]pyridin-3-yl)acrylate] | 
34 | 0.1 | N#C/C(=C\c1cn(Cc2ccccc2F)c2ncccc12)C(=O)O [PP35, (E)-2-cyano-3-(1-(2-fluorobenzyl)-1H-pyrrolo[2,3-b]pyridin-3-yl)acrylic acid] | 
411 |  | N#C/C(=C\c1cn(Cc2ccncc2)c2ncccc12)C(=O)O [PP40, Sodium (E)-2-cyano-3-(1-(pyridin-4-ylmethyl)-1H-pyrrolo[2,3-b]pyridin-3-yl)acrylate] | 
183 |  | N#C/C(=C\c1cn(Cc2ccccn2)c2ncccc12)C(=O)O [PP38, Sodium (E)-2-cyano-3-(1-(pyridin-2-ylmethyl)-1H-pyrrolo[2,3-b]pyridin-3-yl)acrylate] | 
54 | 0.1 | N#C/C(=C\c1cn(Cc2ccccc2C(F)(F)F)c2ncccc12)C(=O)O [PP26, (E)-2-Cyano-3-(1-(2-(trifluoromethyl)benzyl)-1H-pyrrolo[2,3-b]pyridin-3-yl) acrylic acid] | Stirred 1 hour at room temperature; dissolved
109 |  | N#C/C(=C\c1cn(Cc2ccc(F)cc2)c2ncccc12)C(=O)O [PP37, (E)-2-cyano-3-(1-(4-fluorobenzyl)-1H-pyrrolo[2,3-b]pyridin-3-yl)acrylic acid] | 
36.3 | 0.15 | N#C/C(=C\c1cn(Cc2cccc(C(F)(F)F)c2)c2ncccc12)C(=O)O [PP27, (E)-2-Cyano-3-(1-(3-(trifluoromethyl)benzyl)-1H-pyrrolo[2,3-b]pyridin-3-yl) acrylic acid] | Stirred 1 hour at room temperature; dissolved
26 | 0.1 | N#C/C(=C\c1cn(Cc2cccc(F)c2)c2ncccc12)C(=O)O [PP36, (E)-2-cyano-3-(1-(3-fluorobenzyl)-1H-pyrrolo[2,3-b]pyridin-3-yl)acrylic acid] | 
51.2 | 0.027 | N#C/C(=C\c1cn(Cc2cc(C(F)(F)F)cc(C(F)(F)F)c2)c2ncccc12)C(=O)O [JXL069, reference compound] | Stirred overnight at room temperature; dissolved
